Molecular target: T1, M3 muscarinic receptor subtype (Homo sapiens, UniProt P20309)
T1 construct: expressed in transfected cells
Experiment: Radioligand binding assay ([3H]-NMS displacement)
Settings: CHO cell membranes, [3H]-NMS at 1 nM; tested in this or a similar assay
Description: CHO cell lines stably expressing cloned human hM1, hM2, hM3 and hM4 muscarinic receptor subtypes, respectively, were grown to near confluency in medium consisting of HAM's F-12 supplemented with 10% FBS and 250 μg/mL Geneticin. The cells were grown in a 5% CO2, 37° C. incubator and lifted with 2 mM EDTA in dPBS. Cells were collected by 5 minute centrifugation at 650×g, and cell pellets were either stored frozen at −80° C. or membranes were prepared immediately. For membrane preparation, cell pellets were resuspended in lysis buffer and homogenized with a Polytron PT-2100 tissue disrupter (Kinematica AG; 20 seconds×2 bursts). Crude membranes were centrifuged at 40,000×g for 15 minutes at 4° C. […] The protein concentration of the membrane suspension was determined by the method described in Lowry, O. et al., Journal of Biochemistry 193:265 (1951). […]
Radioligand binding assays were performed in 96-well microtiter plates in a total assay volume of 100 μL. […] Filter plates were rinsed three times with wash buffer (10 mM HEPES) to remove unbound radioactivity. […] The plates were then counted in a PerkinElmer Topcount liquid scintillation counter (PerkinElmer Inc., Wellesley, Mass.). Binding data were analyzed by nonlinear regression analysis with the GraphPad Prism Software package (GraphPad Software, Inc., San Diego, Calif.) using the one-site competition model. […]

T1 sequence (P20309 whole entry): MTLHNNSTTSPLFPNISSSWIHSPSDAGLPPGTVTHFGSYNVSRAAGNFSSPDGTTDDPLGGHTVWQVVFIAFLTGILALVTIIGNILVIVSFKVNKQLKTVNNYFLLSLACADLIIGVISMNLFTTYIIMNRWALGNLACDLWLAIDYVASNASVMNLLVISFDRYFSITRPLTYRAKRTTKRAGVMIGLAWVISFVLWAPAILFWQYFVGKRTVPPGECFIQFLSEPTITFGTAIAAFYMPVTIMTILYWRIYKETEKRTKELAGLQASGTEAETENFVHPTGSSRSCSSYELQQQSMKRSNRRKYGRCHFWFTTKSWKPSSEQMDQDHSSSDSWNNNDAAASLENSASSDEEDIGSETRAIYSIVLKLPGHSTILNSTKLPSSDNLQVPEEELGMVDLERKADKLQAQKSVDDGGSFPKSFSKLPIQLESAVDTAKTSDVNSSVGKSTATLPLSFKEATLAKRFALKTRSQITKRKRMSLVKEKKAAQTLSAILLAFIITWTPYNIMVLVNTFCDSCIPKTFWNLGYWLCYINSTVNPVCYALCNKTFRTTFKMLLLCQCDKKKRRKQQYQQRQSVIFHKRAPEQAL

## CN(CCN1CCC(OC(=O)Nc2ccccc2-c2ccccc2)CC1)C(=O)c1ccc(CN2CCC(C(N)=O)CC2)cc1 [compound of formula I, biphenyl-2-ylcarbamic acid 1-(2-{[4-(4-carbamoylpiperidin-1-ylmethyl)benzoyl]methylamino}ethyl)piperidin-4-yl ester]
  Ki: < 5 nM
